For series [1] the following is noted: animal data, local administration; cited from earlier work.
The conditions of series [2]: background, cited from earlier work.
For series [3] the following is noted: rabbits, 3.00 mg/kg of tizanidine hydrochloride, preliminary.
For series [4] the following is noted: highest concentration, 14 days of treatment tid in rabbits.
The conditions of series [5]: aqueous solution 45.00 mg/mL, pH 4.8. The method, then:
The proposed formulations are calculated for a single puff of 50 μL/nostril.

A short description of series [6]: pH of the formulations / aqueous solutions. The format is physicochemical. Conditions: aqueous solutions without buffer.
Series [7] can be described thus: Human absorption: Tizaspray intranasally vs Sirdalud tablets, randomised cross-over, plasma levels of tizanidine by LC/MS/MS over 12 hours. Conditions: highest concentration, single administration in humans.
Description: The plasma levels of tizanidine were determined by LC/MS/MS over 12 hours from the administration.
R=Sirdalud tablet; T1=1*70 μL/puff by intranasal route; T2=2*70 μL/puff by intranasal route.

Each structure is given as a SMILES string. Counter-ions that a name gives are not always drawn.

The values that follow come from patent US20150141473A1, “PHARMACEUTICAL DOSAGE FORMS OF TIZANIDINE AND ADMINISTRATION ROUTES THEREOF” (priority 2012, published 2015).

The term Tmax denotes the time from dosing to the highest level. Regarding `Clc1ccc2nsnc2c1NC1=NCCN1` [Tizanidine, 5-chloro-N-(4,5-dihydro-1H-imidazol-2-yl)-2,1,3-benzothia-diazol-4-amine], the “activity compared with clonidine” value in series [1] is “equivalent activity of tizanidine and clonidine”. For the same molecule, in series [2] (2 or 4 mg tablets), the “absorption by oral route” value was “well and rapidly absorbed by oral route”. Also, in series [2] (known pharmacokinetic profile), the T1/2z is 1 to 2 h and the Tmax was 1 to 2 h. Also, the first-pass effect entry in series [2] (oral route) is “extensive first-pass effect”. In series [3] (IN vs IM), the “bioavailability by intranasal route” value was “close to that of intramuscular route (IM)”. Besides, the intranasal absorption result in series [3] (IN, without any enhancer) is reported as “rapidly absorbed”.

Turning to `Clc1ccc2nsnc2c1NC1=NCCN1` [tizanidine hydrochloride], the “tolerability on the nasal mucosa” value in series [4] is on record as “well tolerated on the nasal mucosa”. Also, the “tolerability on the nasal mucosa (redness or pain)” value in series [5] is recorded as “tolerated by the nasal mucosa without any local side effect”. For the same molecule, the “pH of aqueous solutions” value in series [6] was 4.8. In addition, the “absorption by intranasal route” value in series [7] is “rapidly and completely absorbed”.
